Laboratory results from ChEMBL document CHEMBL5131512, “Novel niclosamide-derived adjuvants elevating the efficacy of polymyxin B against MDR Pseudomonas aeruginosa DK2” (Eur J Med Chem, 2022).
Converted amounts (≈) assume the structure as drawn. The source made the active and inactive calls. The calls are words filed in the database; no cut-off is given here. Bridge positions count the residues as written; N and C are the ends. Square brackets hold non-standard residues; d marks the D form. Peptide text beside a SMILES is read from it. * marks the point of attachment. X1 = CC[C@H](C)CCCCC(=O)*; Dab = NCC[C@H](N)C(=O)O

Assays:
Pseudomonas aeruginosa [1] = experiment: Antimicrobial activity against clinical isolate CF333-2007 Pseudomonas aeruginosa DK2 assessed as polymyxin B MIC measured after 18 hrs by microbroth dilution assay; format: functional
Pseudomonas aeruginosa [2] = experiment: Antimicrobial activity against clinical isolate CF333-2007 Pseudomonas aeruginosa DK2 measured after 18 hrs in presence of polymyxin B by microbroth dilution assay; format: functional
Pseudomonas aeruginosa [3] = experiment: Antimicrobial activity against clinical isolate CF333-2007 Pseudomonas aeruginosa DK2 measured after 18 hrs by microbroth dilution assay; format: functional
Pseudomonas aeruginosa [4] = experiment: Synergistic antibacterial activity against clinical isolate CF333-2007 Pseudomonas aeruginosa DK2 assessed as fractional inhibitory concentration index incubated for 18 hrs in presence of Polymyxin B; format: functional
[5] = Acute toxicity in ICR mouse assessed as mortality at 50 mg/kg, ip administered as single dose measured after 2 hrs; format: organism-based; details: in vivo, read-out: Activity
[6] = Acute toxicity in ICR mouse assessed as effect on kidney at 50 mg/kg, ip administered as single dose measured after 7 days; format: organism-based; details: in vivo, 168 h, time 7 day
Klebsiella pneumoniae [7] = experiment: Synergistic antibacterial activity against Klebsiella pneumoniae 674 assessed as fold decrease in polymyxin MIC at 8 ug/ml; format: functional; details: dose 8 µg/ml
[8] = Acute toxicity in ICR mouse assessed as mortality at 50 mg/kg, ip administered as single dose; format: organism-based; details: in vivo
[9] = Acute toxicity in ICR mouse assessed as effect on body weight at 50 mg/kg, ip administered as single dose measured daily for 7 days; format: organism-based; details: in vivo, 168 h, time 7 day
[10] = Acute toxicity in ICR mouse assessed as effect on heart at 50 mg/kg, ip administered as single dose measured after 7 days; format: organism-based; details: in vivo, 168 h, time 7 day
[11] = Acute toxicity in ICR mouse assessed as effect on spleen at 50 mg/kg, ip administered as single dose measured after 7 days; format: organism-based; details: in vivo, 168 h, time 7 day
[12] = Acute toxicity in ICR mouse assessed as effect on liver at 50 mg/kg, ip administered as single dose measured after 7 days; format: organism-based; details: in vivo, 168 h, time 7 day
Pseudomonas aeruginosa [13] = experiment: Antibacterial activity against Pseudomonas aeruginosa PAO1 infected in Caenorhabditis elegans N2 worms assessed as colonization of bacteria on intestinal tract at 8 ug/ml in presence of polymyxin B; format: functional, organism-based; details: dose 8.0 µg/ml
Pseudomonas aeruginosa [14] = experiment: Antibacterial activity against Pseudomonas aeruginosa DK2 assessed as reduction in bacterial growth at 4 ug/ml measured after 24 hrs in presence […] of polymyxin B by time kill assay; format: functional; details: dose 4 µg/ml
Pseudomonas aeruginosa [15] = experiment: Synergistic inhibition of PA3552-lux expression in Pseudomonas aeruginosa DK2 at 1 ug/ml measured after 5 to 8 hrs in presence of polymyxin B by microplate reader assay; format: functional, organism-based; details: dose 1.0 µg/ml, time 5-8 hrs
Pseudomonas aeruginosa [16] = experiment: Antibacterial activity against Pseudomonas aeruginosa PAO1 assessed as reduction in bacterial growth at 2 ug/ml measured after 24 hrs in presence of polymyxin B by time kill assay; format: functional; details: dose 2 µg/ml
[17] = Acute toxicity in ICR mouse assessed as effect on lungs at 50 mg/kg, ip administered as single dose measured after 7 days; format: organism-based, Lung; details: in vivo, 168 h, time 7 day
Pseudomonas aeruginosa [18] = experiment: Inhibition of PA3552-lux expression in Pseudomonas aeruginosa DK2 at 1 ug/ml measured after 5 to 8 hrs by microplate reader assay; format: functional; details: dose 1.0 µg/ml, time 5-8 hrs
Pseudomonas aeruginosa [19] = experiment: Synergistic antibacterial activity against Pseudomonas aeruginosa PAO1 infected in Caenorhabditis elegans N2 worms assessed as worms survival at 4 to 8 ug/ml in presence of polymyxin B; format: functional; details: dose 4-8 µg/ml; at 4 to 8 µg/mL
Escherichia coli [20] = experiment: Synergistic antibacterial activity against Escherichia coli 15017 assessed as fold decrease in polymyxin MIC at 8 ug/ml; format: functional; details: dose 8 µg/ml
Pseudomonas aeruginosa [21] = experiment: Suppression of polymyxin drug resistance development against pseudomonas aeruginosa DK2 at 4 ug/ml in presence of polymyxin B after repeated passaging for 14 days; format: functional; details: dose 4 µg/ml; time 14 day
Acinetobacter baumannii = experiment: Synergistic antibacterial activity against Acinetobacter baumannii 186 assessed as fold decrease in polymyxin MIC at 8 ug/ml; format: functional; details: dose 8 µg/ml
Escherichia coli [22] = experiment: Synergistic antibacterial activity against Escherichia coli 15017 assessed as polymyxin MIC at 8 ug/ml; format: functional; details: dose 8 µg/ml
Klebsiella pneumoniae [23] = experiment: Synergistic antibacterial activity against Klebsiella pneumoniae 674 assessed as polymyxin MIC at 8 ug/ml; format: functional; details: dose 8 µg/ml
Pseudomonas aeruginosa [24] = experiment: Antibacterial activity against Pseudomonas aeruginosa PAO1 infected in Caenorhabditis elegans N2 worms at 16 ug/ml; format: functional, organism-based; details: dose 16.0 µg/ml
Pseudomonas aeruginosa [25] = experiment: Drug resistance against pseudomonas aeruginosa DK2 assessed as increase in MIC measured after repeated passaging for 14 days; format: functional; details: DK2, 336 h, time 14 day
Pseudomonas aeruginosa [26] = experiment: Antibacterial activity against Pseudomonas aeruginosa DK2 assessed as reduction in bacterial growth at 0.5 ug/ml measured after 24 hrs by time kill assay; format: functional; details: dose 0.5 µg/ml
Pseudomonas aeruginosa [27] = experiment: Drug resistance against pseudomonas aeruginosa DK2 assessed as fold increase in MIC measured after repeated passaging for 14 days; format: functional; details: time 14 day

| Compound | MIC (Pseudomonas aeruginosa [1]) [µg/mL] | MIC (Pseudomonas aeruginosa [2]) [µg/mL] | MIC (Pseudomonas aeruginosa [3]) [µg/mL] | fractional inhibitory concentration index (FICI) (Pseudomonas aeruginosa [4]) | also measured |
| --- | --- | --- | --- | --- | --- |
| O=C(Nc1ccc([N+](=O)[O-])cc1Cl)c1ccc(O)cc1O | > 32 | > 32 | > 1020 | – | – |
| O=C(Nc1ccc(O[C@H]2O[C@H](CO)[C@H](O)[C@H](O)[C@H]2O)cc1Cl)c1cc(Cl)ccc1O | > 32 | > 32 | > 1020 | – | – |
| O=C(O)c1ccc(NC(=O)c2cc(Cl)ccc2O)c(Cl)c1 | > 32 | > 32 | > 1020 | – | – |
| O=C(Nc1ccc(N2CCOCC2=O)cc1)c1cc(F)ccc1O | – | – | > 1020 | – | – |
| O=C(Nc1ccc([N+](=O)[O-])cc1Cl)c1ccc(Br)cc1O | 1 | 8 | > 1020 | 0.012 | – |
| O=C(Nc1cccnc1)c1cc(Cl)ccc1O | > 32 | > 32 | > 1020 | – | – |
| COc1ccc(O)c(C(=O)Nc2ccc([N+](=O)[O-])cc2Cl)c1 | 4 | 8 | > 1020 | 0.023 | – |
| O=C(Nc1ccc([N+](=O)[O-])cc1Cl)c1cc(C(F)(F)F)ccc1O | 2 | 16 | > 1020 | 0.023 | – |
| O=C(Nc1ccc([N+](=O)[O-])cc1Cl)c1cc(O)ccc1O | > 32 | > 32 | > 1020 | – | – |
| O=C(Nc1ccc([N+](=O)[O-])cc1O)c1cc(Cl)ccc1O | 4 | 4 | – | 0.078 | – |
| O=C(Nc1ccc(O)cc1Cl)c1cc(Cl)ccc1O | 4 | 32 | – | 0.141 | – |
| O=C(Nc1ccc([N+](=O)[O-])cc1Cl)c1ccc(F)cc1O | 1 | 16 | – | 0.066 | – |
| O=C(Oc1ccc([N+](=O)[O-])cc1Cl)c1cc(Cl)ccc1O | 8 | 16 | – | 0.141 | – |
| O=C(Nc1ccc([N+](=O)[O-])cc1Cl)c1cc(F)ccc1O | 1 | 4 | > 1020 | 0.008 | mortality at 2 h [5]: 80%; Activity [6]: Non-Toxic; fold change (FC) (Klebsiella pneumoniae [7]): 256; Activity [8]: Non-Toxic; Activity [9]: Non-Toxic; Activity [10]: Non-Toxic; Activity [11]: Non-Toxic; Activity [12]: Non-Toxic; Activity (Pseudomonas aeruginosa [13]): Active; Activity (Pseudomonas aeruginosa [14]): 2.88 log10CFU/ml; inhibition (Pseudomonas aeruginosa [15]): Active; Activity (Pseudomonas aeruginosa [16]): >5 log10CFU/ml; Activity [17]: Non-Toxic; inhibition (Pseudomonas aeruginosa [18]): Active; Survival (Pseudomonas aeruginosa [19]): 7.31%; fold change (FC) (Escherichia coli [20]): 16; Activity (Pseudomonas aeruginosa [21]): 100%; fold change (FC) (Acinetobacter baumannii): 16; MIC (Escherichia coli [22]): 0.25 µg/mL; MIC (Klebsiella pneumoniae [23]): 1 µg/mL |
| O=C(Nc1ccc(O)cc1Cl)c1cc(F)ccc1O | – | – | > 1020 | – | – |
| O=C(Nc1ccc([N+](=O)[O-])cc1Cl)c1cc(Br)ccc1O | 1 | 32 | > 1020 | 0.066 | – |
| Nc1ccc(NC(=O)c2cc(Cl)ccc2O)c(Cl)c1 | 8 | 16 | > 1020 | 0.047 | – |
| O=C(Nc1cc(Cl)ccc1O)c1ccc([N+](=O)[O-])cc1Cl | 4 | 16 | > 1020 | 0.031 | – |
| O=C(Nc1ccc([N+](=O)[O-])cc1Cl)c1ccccc1 | > 32 | > 32 | > 1020 | – | – |

| Compound | MIC (Pseudomonas aeruginosa [1]) [µg/mL] | MIC (Pseudomonas aeruginosa [2]) [µg/mL] | MIC (Pseudomonas aeruginosa [3]) [µg/mL] | fractional inhibitory concentration index (FICI) (Pseudomonas aeruginosa [4]) | also measured |
| --- | --- | --- | --- | --- | --- |
| Cc1ccc(O)c(C(=O)Nc2ccc([N+](=O)[O-])cc2Cl)c1 | 4 | 1 | > 1020 | 0.017 | – |
| O=C(Nc1ccc([N+](=O)[O-])cc1Cl)c1ccccc1O | 2 | 2 | > 1020 | 0.01 | – |
| O=C(Nc1ccc([N+](=O)[O-])cc1Cl)c1cccc(F)c1O | 1 | 32 | – | 0.129 | – |
| O=C(Nc1ccc([N+](=O)[O-])cc1Cl)c1ccncc1 | > 32 | > 32 | > 1020 | – | – |
| O=C(Nc1ccccc1)c1cc(Cl)ccc1O | 2 | 4 | > 1020 | 0.012 | – |
| O=C(Nc1ccccc1Cl)c1cc(Cl)ccc1O | 2 | 4 | > 1020 | 0.012 | – |
| O=C(Nc1ccc(S(=O)(=O)N2CCOCC2)cc1)c1cc(F)ccc1O | – | – | > 1020 | – | – |
| O=C(Nc1ccc([N+](=O)[O-])cc1Cl)c1cccc(Cl)c1 | > 32 | > 32 | > 1020 | – | – |
| O=C(Nc1ccc(O)cc1Cl)c1ccc(Br)cc1O | – | – | > 1020 | – | – |
| O=C(Nc1ccc([N+](=O)[O-])cc1Cl)c1cc(Cl)ccc1O[C@H]1O[C@H](CO)[C@H](O)[C@H](O)[C@H]1O | 16 | 32 | > 1020 | 0.094 | – |
| O=C(Nc1ccc(S)cc1)c1cc(Cl)ccc1O | > 32 | > 32 | > 1020 | – | – |
| O=C(Nc1ccc2[nH]c(=O)sc2c1)c1cc(F)ccc1O | – | – | > 1020 | – | – |
| O=C(Nc1ccc([N+](=O)[O-])cc1Cl)c1cccc(Br)c1O | 1 | 16 | – | 0.254 | – |
| O=C(Nc1ccc([N+](=O)[O-])cc1Cl)c1cc(Cl)ccc1O [NICLOSAMIDE] | 2 | 2 | – | 0.01 | – |
| CC[C@H](C)CCCCC(=O)N[C@@H](CCN)C(=O)N[C@H](C(=O)N[C@@H](CCN)C(=O)N[C@H]1CCNC(=O)[C@H]([C@@H](C)O)NC(=O)[C@H](CCN)NC(=O)[C@H](CCN)NC(=O)[C@H](CC(C)C)NC(=O)[C@@H](Cc2ccccc2)NC(=O)[C@H](CCN)NC1=O)[C@@H](C)O (X1-[Dab]T[Dab][Dab][Dab][dF]L[Dab][Dab]T; lactam 4-C) | – | – | 256 (≈ 0.213 mM) | – | Activity (Pseudomonas aeruginosa [24]): Active; MIC (Pseudomonas aeruginosa [25]): 8190 µg/mL; Activity (Pseudomonas aeruginosa [26]): 6.38 log10CFU/ml; fold change (FC) (Pseudomonas aeruginosa [27]): 32 |
| CC(=O)N1CCc2cc(NC(=O)c3cc(F)ccc3O)ccc21 | – | – | > 1020 | – | – |
| O=C(Nc1ccc([N+](=O)[O-])cc1Cl)c1cc(F)c(F)cc1O | 1 | 8 | > 1020 | 0.012 | – |
| O=C(Nc1ccc([N+](=O)[O-])cc1Cl)c1cc(Cl)ccc1OC(=O)[C@@H]1CCCN1 | 16 | 16 | > 1020 | 0.078 | – |
